Values of other authors in US20210228489A1, “COMPOSITIONS FOR TREATING CYSTIC FIBROSIS” (Vertex Pharmaceuticals Incorporated, priority 2017, published 2021).

Test system: CFTR
Conditions: CFTR modulator; disclosed in PCT Publication No. WO 2016/057572

Q: Which EC30 does the source give for `CC(C)COc1cc(F)cc(-c2ccc(C(=O)NS(=O)(=O)c3cccc(N)n3)c(N3C[C@@H](C)CC3(C)C)n2)c1` [Compound I, N-[(6-amino-2-pyridyl)sulfonyl]-6-(3-fluoro-5-isobutoxy-phenyl)-2-[(4S)-2,2,4-trimethylpyrrolidin-1-yl]pyridine-3-carboxamide] here?
A: Its EC30 is under 3000 nM.
